Results: paper PMC8637440, “Structural Modifications Yield Novel Insights Into the Intriguing Pharmacodynamic Potential of Anti-inflammatory Nitro-Fatty Acids” (Frontiers in Pharmacology, 2021)

Columns and labels:
COX-2 expression = COX-2 expression in A549 cells (Western blot); assay type: cell-based, human; conditions: 24 h; for COX-2 expression in IL-1β-stimulated A549 cells: 10 µM
Procedure: Cytoplasmic and nuclear extracts (100 µg each) and 30 µg whole-cell lysates were diluted in 5× Laemmli loading dye and denatured for 10 min at 95°C, loaded on a 10% SDS polyacrylamide gel, and separated by gel electrophoresis for 15 min at 80 V followed by 60 min at 120 V. The separated proteins were blotted onto a nitrocellulose membrane (Hybond-C Extra, Amersham Biosciences Ltd., UK) using the Mini Trans-Blot® module (Bio-Rad, Hercules, California, United States) for 90 min at 90 V. The membrane was blocked with Odyssey blocking buffer (Li-Cor Biosciences, Bad Homburg, Germany) or 5% milk powder in TBS-T (Tris Buffered Saline with 0.1% Tween) for 1 h at room temperature (RT). The membranes were incubated with the primary antibodies overnight at 4°C, and then with the secondary antibodies for 1 h at RT. The primary antibodies were diluted 1:1,000 and the secondary antibodies were diluted 1:10,000 to 1:20,000. […] Upon detection, the membrane was washed three times with 1× PBS-T (Phosphate-Buffered Saline with 0.1% Tween) or TBS-T and finally once with 1× PBS or TBS before the protein–antibody interaction was visualized on an Odyssey Infrared Imaging System (Li-Cor Biosciences) at 700 nm or 800 nm depending on the fluorophore of the secondary antibody.
Suppl. Figure 6: Effects of NFA on cellular COX-2 expression. Representative Western Blot of A549 cells treated with (A) NFA with different carbon chain length and (B) different Michael acceptor position for 24 h without IL-1 β stimulation (1 ng/ml) and the densitometrical evaluation of n=4-5 experiments (C, D). Representative Western Blot of A549 cells stimulated with IL-1 β and subsequent treatment with (E) NFA with different carbon chain length and (F) different Michael acceptor position for 24 h and the densitometrical evaluation of n=4-5 experiments (G, H). Intracellular COX-2 levels were normalized to β-actin and presented as mean + SD. Statistical significance was calculated by one-way ANOVA with Bonferroni post-test. P-values of **** P ≦0.0001, **P ≦0.0021, and *P ≦0.03 are considered significant. COX, cyclooxygenase; DMSO , dimethyl sulfoxide; NFA, nitro fatty acids
(1 picture or pasted object on this page, not shown here)

NF-κB p50 = NF-κB p50 transcription factor ELISA in TNFα-stimulated HCT-116 cells; assay type: cell-based, human; conditions: 14 h preincubation, then 10 ng/ml TNF-α 4 h, HCT-116, ELISA; for inhibition of NF-κB p50 signaling: 10 µM
Procedure: (§1) The Nrf-2 and NF-κB transcription factors in the nuclear extracts were detected using an Nrf-2 Transcription Assay Kit (Cayman Chemical, # 600590) and NF-κB (p65 and p50) Transcription Factor Assay Kit (Cayman Chemical, # 10007889 and # 10006912). Prior to assay performance, the nuclear extracts were generated using a Nuclear Extraction Kit (Cayman Chemical, # 10009277). The assay was performed according to the manufacturer’s instructions. For all kits, the nuclear extracts were incubated overnight at 4°C. Development was carried out for 15–20 min or until the wells turned medium to dark blue. Five minutes after the stop solution had been added, the absorbance was read at 450 nm using a plate reader.
(§2) The proteasome inhibitor MG132 ([Lee and Goldberg, 1998]) was used as a positive control, as proteasomal inhibition leads to stabilization of I-κB and thus inhibits the activation of the NF-κB signaling pathway. We used a MG132 incubation period of 4 h as longer incubations have been described to activate NF-κB signaling ([Lee et al., 2013]).
(§3) FIGURE 1 Effects of NFA on the NF-κB p65 and p50 signaling pathway in colorectal cancer cells. […] Incubation for 4 h with the proteasome inhibitor MG132 (1 µM) served as the positive control. […] Values are normalized to protein concentration and unstimulated vehicle control. Data are represented as mean ± SD of (A) n = 3 (DMSO, 16.9.9, 9NOA control of right panel, 18.4.4, 18.6.7, and 18.9.10), n = 4 (all other derivatives) and (B) n = 5. Statistical significance was calculated by one-way analysis of variance (ANOVA) with Bonferroni post-test. *p ≤ 0.03, **p ≤ 0.0021, ***p ≤ 0.0002, ****p ≤ 0.0001 were considered significant versus TNF-α treatment.

NF-κB p65 = NF-κB p65 transcription factor ELISA in TNFα-stimulated HCT-116 cells; assay type: cell-based; conditions: Homo sapiens; 10 µM, 14 h preincubation, then 10 ng/ml TNF-α 4 h, HCT-116, ELISA; read-out: inhibition of NF-κB p65 signaling
Procedure: as §1, §2, §3

COX-2 = target: T1, COX-2 (Homo sapiens, UniProt P35354); test: Recombinant COX-2 peroxidase activity assay; assay type: biochemical; design: purchased Cayman Chemicals #700100; conditions: 30 min preincubation
T1 sequence (P35354 18-604): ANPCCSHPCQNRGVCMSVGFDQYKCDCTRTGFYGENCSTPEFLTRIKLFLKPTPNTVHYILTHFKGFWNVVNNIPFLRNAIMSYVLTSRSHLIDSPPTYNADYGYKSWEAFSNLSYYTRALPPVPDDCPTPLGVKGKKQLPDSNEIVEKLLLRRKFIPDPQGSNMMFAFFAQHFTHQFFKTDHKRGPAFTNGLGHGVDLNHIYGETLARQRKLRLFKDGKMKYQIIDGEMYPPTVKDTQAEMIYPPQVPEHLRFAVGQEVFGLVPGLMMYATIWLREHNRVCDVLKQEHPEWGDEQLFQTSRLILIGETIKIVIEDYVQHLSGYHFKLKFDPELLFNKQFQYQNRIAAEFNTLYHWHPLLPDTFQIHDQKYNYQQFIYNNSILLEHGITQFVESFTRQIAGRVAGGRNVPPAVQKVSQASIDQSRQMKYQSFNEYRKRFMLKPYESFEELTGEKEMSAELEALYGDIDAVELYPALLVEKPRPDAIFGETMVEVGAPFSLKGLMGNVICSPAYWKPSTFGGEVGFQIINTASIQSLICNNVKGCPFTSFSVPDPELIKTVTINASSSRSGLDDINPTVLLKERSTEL
Procedure: The effects of NFA on COX-2 activity were analyzed using a recombinant COX-2 activity assay using a COX Fluorescent Inhibitor Screening Assay Kit (Cayman Chemicals, #700100). The assay was performed according to the manufacturer’s instructions in a black 96-well microplate. Human COX-2 was pre-incubated with NFA and control inhibitors for 30 min at RT following the addition of ADHP (10-acetyl-3,5-dihydroxyphenoxazine) and AA. The mixture was incubated again for 2 min at RT, and the fluorescence was measured at excitation/emission wavelengths of 535/587 nm.
FIGURE 4 Effects of NFA on COX-2 peroxidase activity. […] Peroxidase activity was measured by the appearance of TMPD. Data are presented as the percent of the control mean ± SD, n = 4. Statistical significance was calculated by one-way ANOVA with Bonferroni post-test. **p ≤ 0.0021, ***p ≤ 0.0002, ****p ≤ 0.0001 are considered significant.

CCCCCCCCCCCCC=C(CCCC(=O)O)[N+](=O)[O-] [18.5.5, 5-nitro-octadec-5-enoic acid]
COX-2 expression in IL-1β-stimulated A549 cells (COX-2 expression): highest effects

CCCCCCCCCCC=C(CCCCCC(=O)O)[N+](=O)[O-] [18.7.7, 7-nitro-octadec-7-enoic acid]
COX-2 expression in IL-1β-stimulated A549 cells (COX-2 expression): highest effects | COX-2 gene expression in non-stimulated A549 cells (COX-2 expression; without IL-1β): clearly increased COX-2 gene expression | inhibition of NF-κB p50 signaling (NF-κB p50): most effective p50 inhibitors | inhibition at 10 µM (NF-κB p65): ~90%

CCCCCCCCCC=C(CCCCCCC(=O)O)[N+](=O)[O-] [18.8.8, 8-nitro-octadec-8-enoic acid]
COX-2 expression in IL-1β-stimulated A549 cells (COX-2 expression): highest effects | inhibition of NF-κB p50 signaling (NF-κB p50): most effective p50 inhibitors | inhibition at 10 µM (NF-κB p65): 50%

CCCCCCCCCC(=CCCCCCCC(=O)O)[N+](=O)[O-] [18.8.9, 9-nitro-octadec-8-enoic acid]
inhibition of NF-κB p50 signaling (NF-κB p50): most effective p50 inhibitors | inhibition at 10 µM (NF-κB p65): 50%

CCCCCCCCC=C(CCCCCCCC(=O)O)[N+](=O)[O-] [18.9.9, 9-nitro-octadec-9-enoic acid]
inhibition of NF-κB p50 signaling (NF-κB p50): most effective p50 inhibitors | inhibition at 10 µM (NF-κB p50; Homo sapiens, read-out: inhibition of NF-κB p50 signaling): ~60% | inhibition at 10 µM (NF-κB p65): 50% | inhibition at 10 µM (COX-2): > 65%

CCCCCCCC=C(CCCCCCCCC(=O)O)[N+](=O)[O-] [18.10.10, 10-nitro-octadec-10-enoic acid]
inhibition at 10 µM (COX-2): > 90%

CCCCCCCCCCC=C(CCCCCCCC(=O)O)[N+](=O)[O-] [20.9.9, 9-nitro-eicos-9-enoic acid]
inhibition at 10 µM (COX-2): > 85%

CCCCCCCC/C=C\CCCCCCCC(=O)O [OA, oleic acid, reference compound]
inhibition of recombinant COX-2 peroxidase activity (COX-2; 10 µM): only weakly affected
